The values below come from US20260297095A1, “NOVEL PYRROLOTRIAZINE DERIVATIVE AND USE THEREOF” (Pelemed Co., Ltd., priority 2024, published 2026).

Each structure is given as a SMILES string.

The target of one assay is YES1 kinase (Homo sapiens, UniProt P07947). Put plainly: YES1 kinase inhibition, ADP Glo assay (Promega). It is filed as biochemical. The settings on record: for IC50: class symbols, read-out: YES1 enzyme, IC50; for inhibition at 0.01 µM: compound 10 nM, read-out: YES1 enzyme, % inhibition, 10 nM; for inhibition at 0.1 µM: compound 100 nM, read-out: YES1 enzyme, % inhibition, 100 nM; for YES1 kinase inhibition at 1 nM (in words) / inhibition at 0.001 µM: compound 1 nM; for inhibition at 0.001 µM: read-out: YES1 enzyme, % inhibition, 1 nM. The method in brief:
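YES1 kinase was preincubated 10 min with compound in Mn2+/DTT-containing kinase buffer, then reacted 40 min at room temperature with ATP/substrate; ADP was detected by ADP-Glo luminescence. Activity, background-subtracted and normalised to negative control, is given as % inhibition at 1, 10 and 100 nM, plus IC50.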

Assay [1] has as its system KYSE-70 esophageal cancer cell line. Put plainly: Cell growth inhibition of KYSE-70 (Sulforhodamine B). The settings on record: Homo sapiens; KYSE-70, 72 hours; read-out: KYSE70 GI50. Format: cell-based. The gist of the method:
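KYSE-70 cells (YES1-amplified) in RPMI-1640 with 10% FBS were seeded 24 h before treatment with compound at 0.0046–10 µM final. After 72 h, cells were TCA-fixed and stained with sulforhodamine B, with absorbance read at 510 nm. GI50 was derived with a time-zero plate set to 0% and the vehicle control to 100%, in duplicate tests.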

Chain of YES1 kinase (P07947 whole entry): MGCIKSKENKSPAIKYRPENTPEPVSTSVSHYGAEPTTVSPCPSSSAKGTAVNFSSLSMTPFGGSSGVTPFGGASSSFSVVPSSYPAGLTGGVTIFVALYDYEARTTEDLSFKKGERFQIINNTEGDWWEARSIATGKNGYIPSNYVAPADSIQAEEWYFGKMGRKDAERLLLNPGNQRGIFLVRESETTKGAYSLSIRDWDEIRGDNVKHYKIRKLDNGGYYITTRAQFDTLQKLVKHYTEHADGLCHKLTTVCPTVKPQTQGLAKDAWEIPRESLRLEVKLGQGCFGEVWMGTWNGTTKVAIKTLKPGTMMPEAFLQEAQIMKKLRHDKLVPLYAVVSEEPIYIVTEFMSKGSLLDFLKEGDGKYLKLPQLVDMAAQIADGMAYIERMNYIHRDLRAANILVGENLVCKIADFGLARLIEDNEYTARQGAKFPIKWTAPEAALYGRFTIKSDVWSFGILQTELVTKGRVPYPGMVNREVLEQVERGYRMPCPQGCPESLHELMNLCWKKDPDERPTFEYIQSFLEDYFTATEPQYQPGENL

By IC50 is commonly meant the concentration needed to halve the response being measured. One may read the GI50 as the concentration giving 50% growth inhibition. Consider `COc1cc(-c2cc(N3CCC(N)CC3)n3ncnc(N)c23)ccc1NC(=O)c1ccco1` [Example 137, N-(4-(4-amino-7-(4-aminopiperidin-1-yl)pyrrolo[2,1-f][1,2,4]triazin-5-yl)-2-methoxyphenyl)furan-2-carboxamide], for which the IC50 on YES1 kinase was no more than 100 nM. Also, the GI50 in assay [1] was 100 to 1000 nM.
The inhibition is the relative decrease from the control value, in per cent. With `COc1cc(-c2cc(N3CCC(N(C)C)CC3)n3ncnc(N)c23)ccc1NC(=O)OC(C)(C)C` [Example 15, tert-butyl (4-(4-amino-7-(4-(dimethylamino)piperidin-1-yl)pyrrolo[2,1-f][1,2,4]triazin-5-yl)-2-methoxyphenyl)carbamate], on YES1 kinase, the inhibition at 0.01 µM turned out to be 67% and the inhibition at 0.1 µM came to 88%. Also, the 50% growth inhibitory concentration (GI50) in assay [1] is no more than 100 nM.
As for `COc1cc(-c2cc(N3CC4CC(C3)C4N)n3ncnc(N)c23)ccc1NC(=O)OC(C)(C)C` (stereo not drawn) [Example 93, tert-butyl (4-(4-amino-7-(6-amino-3-azabicyclo[3.1.1]heptan-3-yl)pyrrolo[2,1-f][1,2,4]triazin-5-yl)-2-methoxyphenyl)carbamate], on YES1 kinase, the inhibition at 0.01 µM stood at 14% and the inhibition at 0.1 µM came out at 48%. For the same molecule, the GI50 in assay [1] fell in the range of 100 to 1000 nM.
As to `COc1cc(-c2cc(N3CCC(CN)C(C)(C)C3)n3ncnc(N)c23)ccc1NC(=O)OC(C)(C)C` (stereo not drawn) [Example 104, tert-butyl (4-(4-amino-7-(4-(aminomethyl)-3,3-dimethylpiperidin-1-yl)pyrrolo[2,1-f][1,2,4]triazin-5-yl)-2-methoxyphenyl)carbamate], on YES1 kinase, the “YES1 kinase inhibition at 1 nM (in words)” value (“YES1 kinase inhibition” below) is listed as “could be inhibited even at a low concentration of 1 nM”, the inhibition at 0.001 µM turned out to be 33% and the inhibition at 0.01 µM is 45%. For the same molecule, in assay [1], the GI50 lay within 100 to 1000 nM.
For `COc1cc(-c2cc(CCN3CCC(N)CC3)n3ncnc(N)c23)ccc1NC(=O)OC(C)(C)C` [Example 100, tert-butyl (4-(4-amino-7-(2-(4-aminopiperidin-1-yl)ethyl)pyrrolo[2,1-f][1,2,4]triazin-5-yl)-2-methoxyphenyl)carbamate], at YES1 kinase, the inhibition at 0.01 µM amounted to 70% and the inhibition at 0.1 µM was determined as 88%. Moreover, the GI50 in assay [1] is no more than 100 nM.
As to `COc1cc(-c2cc(N3CCN(CCN(C)C)CC3)n3ncnc(N)c23)ccc1NC(=O)OC(C)(C)C` [Example 28, tert-butyl (4-(4-amino-7-(4-(2-(dimethylamino)ethyl)piperazin-1-yl)pyrrolo[2,1-f][1,2,4]triazin-5-yl)-2-methoxyphenyl)carbamate], at YES1 kinase, the inhibition at 0.01 µM turned out to be 41% and the inhibition at 0.1 µM stood at 85%. Besides, the concentration for 50% growth inhibition (GI50) in assay [1] was 1000 to 10000 nM.
`CN(C)C1CCN(c2cc(-c3ccc(Oc4ccccc4)cc3)c3c(N)ncnn23)CC1` [Example 136, 7-(4-(dimethylamino)piperidin-1-yl)-5-(4-phenoxyphenyl)pyrrolo[2,1-f][1,2,4]triazin-4-amine]: at YES1 kinase, the inhibition at 0.01 µM was 64% and the inhibition at 0.1 µM was determined as 90%. The concentration for 50% growth inhibition (GI50) in assay [1] was no more than 100 nM.
Turning to `COc1cc(-c2cc(NCC3CCNCC3)n3ncnc(N)c23)ccc1NC(=O)OC(C)(C)C` [Example 117, tert-butyl (4-(4-amino-7-((piperidin-4-ylmethyl)amino)pyrrolo[2,1-f][1,2,4]triazin-5-yl)-2-methoxyphenyl)carbamate], at YES1 kinase, the inhibition at 0.01 µM came to 39% and the inhibition at 0.1 µM was found to be 64%. Moreover, the GI50 in assay [1] lay in the range of 100 to 1000 nM.
`COc1cc(-c2cc(N3CCC(CCN(C)C)CC3)n3ncnc(N)c23)ccc1NC(=O)OC(C)(C)C` [Example 109, tert-butyl (4-(4-amino-7-(4-(2-(dimethylamino)ethyl)piperidin-1-yl)pyrrolo[2,1-f][1,2,4]triazin-5-yl)-2-methoxyphenyl)carbamate]: at YES1 kinase, the IC50 is no more than 100 nM, the inhibition at 0.001 µM was 37% and the inhibition at 0.01 µM came out at 51%. Besides, in assay [1], the concentration for 50% growth inhibition (GI50) was no more than 100 nM.
With `COc1cc(-c2cc(N3CCC4(CC3)CC(=O)N(C)C4)n3ncnc(N)c23)ccc1NC(=O)OC(C)(C)C` [Example 27, tert-butyl (4-(4-amino-7-(2-methyl-3-oxo-2,8-diazaspiro[4.5]decan-8-yl)pyrrolo[2,1-f][1,2,4]triazin-5-yl)-2-methoxyphenyl)carbamate], on YES1 kinase, the inhibition at 0.01 µM is 59% and the inhibition at 0.1 µM is 74%. In assay [1], the GI50 lay within 1000 to 10000 nM.
In the same order, the values of `COCCN1CCN(c2cc(-c3ccc(NC(=O)OC(C)(C)C)c(OC)c3)c3c(N)ncnn23)CC1` [Example 29, tert-butyl (4-(4-amino-7-(4-(2-methoxyethyl)piperazin-1-yl)pyrrolo[2,1-f][1,2,4]triazin-5-yl)-2-methoxyphenyl)carbamate] are 28%, 47% and greater than 10000 nM.
Turning to `COc1cc(-c2c(C)c(N3CCC(N)CC3)n3ncnc(N)c23)ccc1NC(=O)OC(C)(C)C` [Example 74, tert-butyl (4-(4-amino-7-(4-aminopiperidin-1-yl)-6-methylpyrrolo[2,1-f][1,2,4]triazin-5-yl)-2-methoxyphenyl)carbamate], at YES1 kinase, the half-maximal inhibitory concentration (IC50) is no more than 100 nM, the “YES1 kinase inhibition” value is on record as “could be inhibited even at a low concentration of 1 nM”, the inhibition at 0.001 µM stood at 43% and the inhibition at 0.01 µM was found to be 66%. Further, in assay [1], the GI50 is no more than 100 nM.
Take `CCNC1CCN(c2cc(-c3ccc(NC(=O)OC(C)(C)C)c(OC)c3)c3c(N)ncnn23)CC1` [Example 92, tert-butyl (4-(4-amino-7-(4-(ethylamino)piperidin-1-yl)pyrrolo[2,1-f][1,2,4]triazin-5-yl)-2-methoxyphenyl)carbamate]: on YES1 kinase, the concentration for half-maximal inhibition (IC50) was no more than 100 nM, the inhibition at 0.01 µM was found to be 66% and the inhibition at 0.1 µM came out at 81%. Further, in assay [1], the GI50 fell in the range of 100 to 1000 nM.
Regarding `COc1cc(-c2cc(N3CC4(CCN(C)C4)C3)n3ncnc(N)c23)ccc1NC(=O)OC(C)(C)C` [Example 39, tert-butyl (4-(4-amino-7-(6-methyl-2,6-diazaspiro[3.4]octan-2-yl)pyrrolo[2,1-f][1,2,4]triazin-5-yl)-2-methoxyphenyl)carbamate], on YES1 kinase, the inhibition at 0.01 µM was found to be 57% and the inhibition at 0.1 µM amounted to 89%. For the same molecule, the GI50 in assay [1] was no more than 100 nM.
Consider `COc1cc(-c2cc(N[C@H]3CC[C@H](N)C3)n3ncnc(N)c23)ccc1NC(=O)OC(C)(C)C` [Example 116, tert-butyl (4-(4-amino-7-(((1S,3S)-3-aminocyclopentyl)amino)pyrrolo[2,1-f][1,2,4]triazin-5-yl)-2-methoxyphenyl)carbamate], for which, at YES1 kinase, the “YES1 kinase inhibition” value is “could be inhibited even at a low concentration of 1 nM”, the inhibition at 0.001 µM worked out at 30% and the inhibition at 0.01 µM was determined as 63%. For the same molecule, in assay [1], the GI50 lay in the range of 100 to 1000 nM.
For the molecule `COc1cc(-c2cc(N3CCC(CCN)CC3)n3ncnc(N)c23)ccc1NC(=O)OC(C)(C)C` [Example 107, tert-butyl (4-(4-amino-7-(4-(2-aminoethyl)piperidin-1-yl)pyrrolo[2,1-f][1,2,4]triazin-5-yl)-2-methoxyphenyl)carbamate], on YES1 kinase, the half-maximal inhibitory concentration (IC50) is no more than 100 nM, the inhibition at 0.001 µM is 38% and the inhibition at 0.01 µM turned out to be 52%. Also, the GI50 in assay [1] lay in the range of 100 to 1000 nM.
Turning to `COc1cc(-c2cc(N3CCC4(CCNC4=O)CC3)n3ncnc(N)c23)ccc1NC(=O)OC(C)(C)C` [Example 53, tert-butyl (4-(4-amino-7-(1-oxo-2,8-diazaspiro[4.5]decan-8-yl)pyrrolo[2,1-f][1,2,4]triazin-5-yl)-2-methoxyphenyl)carbamate], at YES1 kinase, the inhibition at 0.01 µM was 29% and the inhibition at 0.1 µM was 60%. Moreover, the 50% growth inhibitory concentration (GI50) in assay [1] is no more than 100 nM.
On the same counts, the results for `COc1cc(-c2cc(-c3ccc(N(C)C)c(C)c3)n3ncnc(N)c23)ccc1NC(=O)OC(C)(C)C` [Example 3, tert-butyl (4-(4-amino-7-(4-(dimethylamino)-3-methylphenyl)pyrrolo[2,1-f][1,2,4]triazin-5-yl)-2-methoxyphenyl)carbamate] are 44%, 49% and greater than 10000 nM.
On to `COc1cc(-c2cc(N3CCC4(CCCN4C)CC3)n3ncnc(N)c23)ccc1NC(=O)OC(C)(C)C` [Example 24, tert-butyl (4-(4-amino-7-(1-methyl-1,8-diazaspiro[4.5]decan-8-yl)pyrrolo[2,1-f][1,2,4]triazin-5-yl)-2-methoxyphenyl)carbamate], for which, on YES1 kinase, the inhibition at 0.01 µM amounted to 50% and the inhibition at 0.1 µM was 82%. Moreover, the GI50 in assay [1] fell in the range of 100 to 1000 nM.
`COc1cc(-c2cc(N3CCN(C4CC4)CC3)n3ncnc(N)c23)ccc1NC(=O)OC(C)(C)C` [Example 17, tert-butyl (4-(4-amino-7-(4-cyclopropylpiperazin-1-yl)pyrrolo[2,1-f][1,2,4]triazin-5-yl)-2-methoxyphenyl)carbamate]: at YES1 kinase, the inhibition at 0.01 µM worked out at 53% and the inhibition at 0.1 µM is 59%. The GI50 in assay [1] is 1000 to 10000 nM.
With `COc1cc(-c2cc(N3CC[C@H](N(C)C)C3)n3ncnc(N)c23)ccc1NC(=O)OC(C)(C)C` [Example 11, tert-butyl (S)-(4-(4-amino-7-(3-(dimethylamino)pyrrolidin-1-yl)pyrrolo[2,1-f][1,2,4]triazin-5-yl)-2-methoxyphenyl)carbamate], on YES1 kinase, the inhibition at 0.01 µM stood at 21% and the inhibition at 0.1 µM was determined as 44%. The GI50 in assay [1] was in the range of 100 to 1000 nM.
